{"source": "a melting point compilation (Tetko et al.; mined from patent text by program, amines drawn as free bases though some values may be those of a salt)"}
{"units": {"melting point": "°C"}}
{"smiles": "CCOCc1nc2c(N)nc3cc(OCCCCCCNC(=O)CCS)ccc3c2n1CC(C)(C)NS(C)(=O)=O", "melting point": "152 to 157"}
{"smiles": "CCOC(=O)C=Cn1c(=O)n2nc(C(=O)OCC)cc2c2cc(OC)ccc21", "melting point": "153 to 154"}
{"smiles": "O=C1C(C2=NCCS2)c2ccccc2N1C1=NCCS1", "note": "(stereo not drawn)", "melting point": "204 to 205"}
{"smiles": "COC(=O)c1ccc(OC(=O)c2ccc(C(=O)Oc3ccc(C(=O)OC)cc3)cc2)cc1", "melting point": "243 to 245"}
{"smiles": "O=C(c1ccccc1)c1[nH]c2cc(Cl)ccc2c1CC(=O)N1CCCCC1", "melting point": "223 to 224"}
{"smiles": "CCc1oc2ccccc2c1C(=O)NCc1ccc2c(Br)c(OCc3nnn[nH]3)ccc2c1", "melting point": "235 to 238"}
{"smiles": "NC(=O)N(O)[C@H]1CC[C@H](c2cccc(F)c2)C1", "note": "(relative stereo)", "melting point": "113 to 114"}
{"smiles": "COc1cc2c(cc1OC(C)C)-c1cc3c(n1CC2)C(=O)N(C(C)(C)C)CCOC3", "melting point": "125 to 127"}
{"smiles": "Cc1cc(CC(=O)OC(C)(C)C)ccc1NC(=O)Nc1ccccc1", "melting point": "143 to 145"}
{"smiles": "Cn1nc(-c2c(F)cccc2Cl)nc1-c1ccc(OCc2ccc(C(F)(F)F)cc2Cl)c(Cl)c1", "melting point": "156 to 159"}
{"smiles": "N#CC1=C(c2ccc(Cl)s2)Nc2n[nH]cc2C1c1cccc2nonc12", "note": "(stereo not drawn)", "melting point": 210}
{"smiles": "Cc1ccc(-c2cc(CNc3cc(CNc4cc(-c5ccc(C)cc5)[nH]n4)n[nH]3)n[nH]2)cc1", "melting point": 167}
{"smiles": "C1=C(c2ccccc2)CCN(CCCCc2ccncc2)C1", "melting point": "89 to 90"}
{"smiles": "CC(C)(C)OC(=O)Nc1ccc(NC(=O)C(=O)N2CCC(Cc3ccccc3)CC2)cc1", "melting point": "177 to 179"}
{"smiles": "CC1(C)OC(=O)C(C(c2ccccc2)c2c[nH]c3ccccc23)C(=O)O1", "note": "(stereo not drawn)", "melting point": "147 to 150"}
{"smiles": "COC(=O)C1CCCn2c(=O)[nH]c(=O)n21", "note": "(stereo not drawn)", "melting point": "215 to 216"}
{"smiles": "CCOC(=O)c1cccc(OCc2ccc3ccccc3c2)c1", "melting point": "45 to 46.5"}
{"smiles": "C=CCCC(C#N)(C#N)Cc1ccc(OC(F)(F)C(F)F)cc1", "melting point": 60.5}
{"smiles": "CON=C(C)c1cccc(NC(=O)NCC(=O)N(C)c2ccc(Cl)c(COc3cccc4ccc(C)nc34)c2Cl)c1", "melting point": "218 to 224"}
{"smiles": "Cc1cc(SCC#Cc2ccccc2)ccc1OCC(=O)O", "melting point": "90 to 92"}
{"smiles": "Cc1cc(Cl)ccc1N=CN(C)SSN(C)C=Nc1ccc(Cl)cc1C", "melting point": "56 to 57"}
{"smiles": "CC=CCn1c(Nc2cc(C)cc(C)c2)c(CC)c(=O)[nH]c1=O", "melting point": "190 to 192"}
{"smiles": "COc1ccc(C2CCc3cc(C)ccc3C2=O)cc1", "note": "(stereo not drawn)", "melting point": "80 to 82"}
{"smiles": "CCOC(=O)C1=C(COCCNCC(N)=O)NC(C)=C(C(=O)OC)C1c1ccccc1Cl", "note": "(stereo not drawn)", "melting point": "126 to 129"}
{"smiles": "CC(=O)Oc1ccc(C(=O)Oc2ccc(C(=O)O)cc2)cc1C12CC3CC(CC(C3)C1)C2", "melting point": "264 to 265"}
{"smiles": "COc1cc2c(c3c1OC(C)(C)C3)C(c1cccc(-c3ccc(C(=O)O)cc3)c1)=NC(C)(C)C2", "melting point": "161 to 165"}
{"smiles": "CCOC(=O)c1sc(Cc2ccccc2)nc1O", "melting point": "97 to 98"}
{"smiles": "O=S1CCN(c2nc3c(-c4nc(C5CC5)no4)ncn3c3ccccc23)CC1", "melting point": "293 to 294"}
{"smiles": "COc1ccc(C(=O)CCC(=O)O)cc1OC1CCCC1", "melting point": "111 to 113"}
{"smiles": "CSCC(=O)Nc1ccc(C2=NNC(=O)CC2C)cc1", "note": "(stereo not drawn)", "melting point": "220 to 222"}
{"smiles": "NC(N)=Nc1nc(-c2ccc(-c3nc(N)n[nH]3)o2)cs1", "melting point": "> 300"}
{"smiles": "Cn1c(C(F)(F)F)cc(=O)n(-c2ccc3snc(C4OCC(CS(C)=O)O4)c3c2)c1=O", "note": "(stereo not drawn)", "melting point": "72 to 75"}
{"smiles": "O=C(O)Cc1ccc2c(c1)sc1ccc(Cl)cc12", "melting point": "220 to 221"}
{"smiles": "O=C(O)C=Cc1nn(-c2ccccc2)c2c1CCC2", "melting point": 223}
{"smiles": "NC(=O)c1ccc2c(c1)C(=O)N1CCC[C@H]1CO2", "melting point": "287 to 290"}
{"smiles": "CC(O)(CC(=O)O)c1ccc(-c2ccc(F)cc2F)cc1", "note": "(stereo not drawn)", "melting point": "121 to 123"}
{"smiles": "COc1cc2ccc(COC(C)=O)cc2cc1OC", "melting point": "71 to 75"}
{"smiles": "Cc1nc(-c2[nH]c3ccccc3c2C=O)no1", "melting point": "228 to 230"}
{"smiles": "NC(=O)c1cc2c(-c3cccc(NC(=O)c4cccc(C(F)(F)F)c4)c3)ncnc2s1", "melting point": "275 to 278"}
{"smiles": "CCCCC1=NC2(CCCC2)C(=O)N1Cc1ccc(-c2ccccc2S(=O)(=O)Nc2onc(C)c2C)c(CN2CCC(C)(C)C2=O)c1", "melting point": "104 to 110"}
{"smiles": "CCC(C)(CC)c1ccc(=O)[nH]n1", "melting point": "97 to 99"}
{"smiles": "COc1ccc(CCNC(=O)CCCCC(=O)NC2Cc3ccccc3C2)cc1OC", "melting point": "162 to 164"}
{"smiles": "O=c1ccc(S(=O)(=O)c2ccc(-c3ccccc3)cc2)n[nH]1", "melting point": "219 to 220"}
{"smiles": "COC(=O)C1=C(C)Nc2ccccc2N(C(C)=O)C1c1cccc([N+](=O)[O-])c1", "note": "(stereo not drawn)", "melting point": "231 to 232"}
{"smiles": "Cc1cccc(-c2[nH]nc(N3CCN(C)CC3)c2-c2ccncc2)c1", "melting point": 262}
{"smiles": "COc1cc(C(=O)NS(=O)(=O)c2ccccc2C)ccc1Cc1cccc2ccc(CCCCC(=O)N(C)C)cc12", "melting point": "88 to 93"}
{"smiles": "CCc1cc(Cl)c(N)c(Cl)c1", "melting point": "47 to 48"}
{"smiles": "Cc1nc2ncnn2c2c1c(O)c(O)n2C", "melting point": "215 to 217"}
